The text below walks through data of patent US20260365682A1, “MODULATORS OF TNF-ALPHA ACTIVITY” (Forward Therapeutics, Inc., priority 2022, published 2026).

The target in the assay is T1, TNF-α (Homo sapiens, UniProt P01375).
T1 construct: purchased R&D 210-TA-020/CF
Description: TNF-α Induced HEK Blue Cellular Assay (secreted alkaline phosphatase expression, QUANTI-Blue). The following applies: HEK Blue TNFα reporter cells; TNF-α 100 μg/ml; 24 hrs at 37° C.; inhibition of secreted alkaline phosphatase; read-out: IC50 value. Format: cell-based. The method, then:
TNF-α Induced HEK Blue Cellular Assay
Test articles were diluted in DMSO and serially diluted into 384 well assay plate (Corning 3765), at final concentrations ranging from […] to 0.5 nM. HEK Blue™ TNFα reporter cells were added at a final density of 10,000 cell per well in assay media [DMEM (Gibco, cat #21063-029), 10% fetal bovine serum (ExcelBio, cat #FND500), 1% Penicillin-Streptomycin (Solarbio, cat #P1400-100]. TNF-α (R&D 210-TA-020/CF) was then added to the assay plate at a final concentration of […]. This plate was then incubated for 24 hrs at 37° C. and 5% CO2. Secreted alkaline phosphatase expression was then measured using QUANTI-Blue™ (Invivogen), according to manufacturer instructions and read on an Envision microplate reader at 620 nm.
Inhibition data for test compound over a range of concentration was plotted as percentage inhibition of the test compound (100%=maximum inhibition). IC50 values were determined after correcting for background [(sample read-mean of low control)/(mean of high control-mean of low control)] whereby the low control is DMSO without stimulation and high control is DMSO with stimulation. The IC50 is defined as the concentration of test compound which produces 50% inhibition and was quantified using the 4 parameter logistic equation to fit the data.

T1 sequence (P01375 77-233 limits assumed): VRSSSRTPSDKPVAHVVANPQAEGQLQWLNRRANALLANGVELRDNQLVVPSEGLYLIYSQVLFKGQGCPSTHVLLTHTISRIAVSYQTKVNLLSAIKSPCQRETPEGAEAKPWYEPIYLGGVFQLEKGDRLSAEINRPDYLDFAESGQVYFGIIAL

The term IC50 denotes the midpoint of a concentration-inhibition curve. Consider `CC1C(C#Cc2ccc3nc4n(c3c2)[C@@H]2C[C@H]4N(C)C(=O)c3cccc(OC(F)F)c32)CN1C1COC1` (single isomer, unassigned) [Example 257, (7R,14R)-1-(difluoromethoxy)-6-(methyl-d3)-11-(((2S or 2R)-2-methyl-1-(oxetan-3-yl)azetidin-3-yl)ethynyl)-6,7-dihydro-7,14-methanobenzo[f]benzo[4,5]imidazo[1,2-a][1,4]diazocin-5(14H)-one], for which the IC50 is less than 100 nM.

On to `[2H]C([2H])([2H])N1C(=O)c2cccc(OC(F)F)c2[C@H]2C[C@@H]1c1nc3ccc(C#CC4CN(C5COC5)C4C)cc3n12` (single isomer, unassigned) [Example 258, (7R,14R)-1-(difluoromethoxy)-6-(methyl-d3)-11-(((2R or 2S)-2-methyl-1-(oxetan-3-yl)azetidin-3-yl)ethynyl)-6,7-dihydro-7,14-methanobenzo[f]benzo[4,5]imidazo[1,2-a][1,4]diazocin-5(14H)-one], for which the IC50 is less than 100 nM.

As for `CN1C(=O)c2cccc(OC(F)F)c2[C@H]2C[C@@H]1c1nc3ccc(C#Cc4cnn(C)c4)cc3n12` [Example 1, (1R,11R)-18-(difluoromethoxy)-12-methyl-5-[2-(1-methylpyrazol-4-yl)ethynyl]-2,9,12-triazapentacyclo[9.8.1.0^∧{2,10}.0^∧{3,8}. 0^∧{14,19}]icosa-3(8),4,6,9,14(19),15,17-heptaen-13-one], the IC50 was less than 100 nM.

As for `Cn1cc(C#Cc2ccc3nc4n(c3c2)[C@@H]2C[C@H]4NC(=O)c3cccc(OC(F)F)c32)cn1` [Example 2, (1R,11R)-18-(difluoromethoxy)-5-[2-(1-methylpyrazol-4-yl)ethynyl]-2,9,12-triazapentacyclo[9.8.1.0^∧{2,10}.0^∧{3,8}. 0^∧{14,19}]icosa-3(8),4,6,9,14(19),15,17-heptaen-13-one], the IC50 is less than 100 nM.

Take `O=C1N[C@@H]2C[C@H](c3c(OC(F)F)cccc31)n1c2nc2ccc(C#Cc3cncnc3)cc21` [Example 3, (1R,11R)-18-(difluoromethoxy)-5-[2-(pyrimidin-5-yl)ethynyl]-2,9,12-triazapentacyclo[9.8.1.0^∧{2,10}.0^∧{3,8}. 0^∧{14,19}]icosa-3(8),4,6,9,14(19),15,17-heptaen-13-one]: the IC50 was less than 100 nM.

In the case of `CN1C(=O)c2cccc(OC(F)F)c2[C@H]2C[C@@H]1c1nc3ccc(C#Cc4cncnc4)cc3n12` [Example 4, (1R,11R)-18-(difluoromethoxy)-12-methyl-5-[2-(pyrimidin-5-yl)ethynyl]-2,9,12-triazapentacyclo[9.8.1.0^{2,10}.0^{3,8}.0^{14,19}]icosa-3(8),4,6,9,14(19),15,17-heptaen-13-one], the IC50 is less than 100 nM.

For the compound `CN1C(=O)c2cccc(OC(F)F)c2[C@H]2C[C@@H]1c1nc3ccc(C#Cc4cnn(CCO)c4)cc3n12` [Example 5, (1R,11R)-18-(difluoromethoxy)-5-{2-[1-(2-hydroxyethyl)pyrazol-4-yl]ethynyl}-12-methyl-2,9,12-triazapentacyclo[9.8.1.0^{2,10}.0^{3,8}.0^{14,19}]icosa-3(8),4,6,9,14(19),15,17-heptaen-13-one], the half-maximal inhibitory concentration (IC50) is less than 100 nM.

Turning to `O=C1N[C@@H]2C[C@H](c3c(OC(F)F)cccc31)n1c2nc2ccc(C#Cc3cnn(CCO)c3)cc21` [Example 6, (1R,11R)-18-(difluoromethoxy)-5-{2-[1-(2-hydroxyethyl)pyrazol-4-yl]ethynyl}-2,9,12-triazapentacyclo[9.8.1.0^{2,10}.0^{3,8}.0^{14,19}]icosa-3(8),4,6,9,14(19),15,17-heptaen-13-one], the IC50 was less than 100 nM.

Turning to `CCN1C(=O)c2cccc(OC(F)F)c2[C@H]2C[C@@H]1c1nc3ccc(C#Cc4cnn(C)c4)cc3n12` [Example 7, (1R,11R)-18-(difluoromethoxy)-12-ethyl-5-[2-(1-methylpyrazol-4-yl)ethynyl]-2,9,12-triazapentacyclo[9.8.1.0^{2,10}.0^{3,8}.0^{14,19}]icosa-3(8),4,6,9,14(19),15,17-heptaen-13-one], the 50% inhibitory concentration (IC50) was less than 100 nM.

Regarding `[2H]C([2H])([2H])N1C(=O)c2cccc(OC(F)F)c2[C@H]2C[C@@H]1c1nc3ccc(C#Cc4cnn(C)c4)cc3n12` [Example 8, (7R,14R)-1-(difluoromethoxy)-6-(methyl-d3)-11-((1-methyl-1H-pyrazol-4-yl)ethynyl)-6,7-dihydro-7,14-methanobenzo[f]benzo[4,5]imidazo[1,2-a][1,4]diazocin-5(14H)-one], the IC50 is less than 100 nM.

Turning to `CN1C(=O)c2cccc(OC(F)F)c2[C@H]2C[C@@H]1c1nc3ccc(C#Cc4cncn4C)cc3n12` [Example 9, (1R,11R)-18-(difluoromethoxy)-12-methyl-5-[2-(3-methylimidazol-4-yl)ethynyl]-2,9,12-triazapentacyclo[9.8.1.0^{2,10}.0^{3,8}.0^{14,19}]icosa-3(8),4,6,9,14(19),15,17-heptaen-13-one], the IC50 was less than 100 nM.

As to `[2H]C([2H])([2H])N1C(=O)c2cccc(OC(F)F)c2[C@H]2C[C@@H]1c1nc3ccc(C#Cc4cnn(CCO)c4)cc3n12` [Example 10, (7R,14R)-1-(difluoromethoxy)-11-((1-(2-hydroxyethyl)-1H-pyrazol-4-yl)ethynyl)-6-(methyl-d3)-6,7-dihydro-7,14-methanobenzo[f]benzo[4,5]imidazo[1,2-a][1,4]diazocin-5(14H)-one], the IC50 was less than 100 nM.

With `[2H]C([2H])([2H])N1C(=O)c2cccc(OC(F)F)c2[C@H]2C[C@@H]1c1nc3ccc(C#Cc4cncnc4)cc3n12` [Example 11, (7R,14R)-1-(difluoromethoxy)-6-(methyl-d3)-11-(pyrimidin-5-ylethynyl)-6,7-dihydro-7,14-methanobenzo[f]benzo[4,5]imidazo[1,2-a][1,4]diazocin-5(14H)-one], the IC50 is less than 100 nM.

On to `[2H]C([2H])([2H])N1C(=O)c2cccc(OC(F)F)c2[C@H]2C[C@@H]1c1nc3ccc(C#Cc4cnnn4C)cc3n12` [Example 12, (7R,14R)-1-(difluoromethoxy)-6-(methyl-d3)-11-((1-methyl-1H-1,2,3-triazol-5-yl)ethynyl)-6,7-dihydro-7,14-methanobenzo[f]benzo[4,5]imidazo[1,2-a][1,4]diazocin-5(14H)-one], for which the IC50 lay within 1000 to 10000 nM.

As for `[2H]C([2H])([2H])N1C(=O)c2cccc(OC(F)F)c2[C@H]2C[C@@H]1c1nc3ccc(C#Cc4ccnn4C)cc3n12` [Example 13, (7R,14R)-1-(difluoromethoxy)-6-(methyl-d3)-11-((1-methyl-1H-pyrazol-5-yl)ethynyl)-6,7-dihydro-7,14-methanobenzo[f]benzo[4,5]imidazo[1,2-a][1,4]diazocin-5(14H)-one], the IC50 is less than 100 nM.

Regarding `[2H]C([2H])([2H])N1C(=O)c2cccc(OC(F)F)c2[C@H]2C[C@@H]1c1nc3ccc(C#Cc4cn[nH]c4)cc3n12` [Example 14, (7R,14R)-11-((1H-pyrazol-4-yl)ethynyl)-1-(difluoromethoxy)-6-(methyl-d3)-6,7-dihydro-7,14-methanobenzo[f]benzo[4,5]imidazo[1,2-a][1,4]diazocin-5(14H)-one], the IC50 is less than 100 nM.

On to `[2H]C([2H])([2H])N1C(=O)c2cccc(OC(F)F)c2[C@H]2C[C@@H]1c1nc3ccc(C#Cc4cnn(CCN)c4)cc3n12` [Example 15, (7R,14R)-11-((1-(2-aminoethyl)-1H-pyrazol-4-yl)ethynyl)-1-(difluoromethoxy)-6-(methyl-d3)-6,7-dihydro-7,14-methanobenzo[f]benzo[4,5]imidazo[1,2-a][1,4]diazocin-5(14H)-one], for which the IC50 was less than 100 nM.

Turning to `[2H]C([2H])([2H])N1C(=O)c2cccc(OC(F)F)c2[C@H]2C[C@@H]1c1nc3ccc(C#Cc4cnc(C(C)(C)O)nc4)cc3n12` [Example 16, (7R,14R)-1-(difluoromethoxy)-11-((2-(2-hydroxypropan-2-yl)pyrimidin-5-yl)ethynyl)-6-(methyl-d3)-6,7-dihydro-7,14-methanobenzo[f]benzo[4,5]imidazo[1,2-a][1,4]diazocin-5(14H)-one], the IC50 is less than 100 nM.

For the compound `[2H]C([2H])([2H])N1C(=O)c2cccc(OC(F)F)c2[C@H]2C[C@@H]1c1nc3ccc(C#Cc4cncn4C)cc3n12` [Example 17, (7R,14R)-1-(difluoromethoxy)-6-(methyl-d3)-11-((1-methyl-1H-imidazol-5-yl)ethynyl)-6,7-dihydro-7,14-methanobenzo[f]benzo[4,5]imidazo[1,2-a][1,4]diazocin-5(14H)-one], the IC50 was less than 100 nM.

Turning to `[2H]C([2H])([2H])N1C(=O)c2cccc(OC(F)F)c2[C@H]2C[C@@H]1c1nc3ccc(C#Cc4cn(C)nn4)cc3n12` [Example 18, (7R,14R)-1-(difluoromethoxy)-6-(methyl-d3)-11-((1-methyl-1H-1,2,3-triazol-4-yl)ethynyl)-6,7-dihydro-7,14-methanobenzo[f]benzo[4,5]imidazo[1,2-a][1,4]diazocin-5(14H)-one], the half-inhibitory concentration (IC50) is less than 100 nM.

As for `Cn1nncc1C#Cc1ccc2nc3n(c2c1)[C@@H]1C[C@H]3NC(=O)c2cccc(OC(F)F)c21` [Example 19, (7R,14R)-1-(difluoromethoxy)-11-((1-methyl-1H-1,2,3-triazol-5-yl)ethynyl)-6,7-dihydro-7,14-methanobenzo[f]benzo[4,5]imidazo[1,2-a][1,4]diazocin-5(14H)-one], the half-inhibitory concentration (IC50) is less than 100 nM.
